Data on 15 compounds can be found in ChEMBL document CHEMBL1201862, “PubChem BioAssay data set” (2004).

Test systems include HCT-15; M14; Malme-3M; KM12; IGROV-1; A549; CAKI-1; UO-31; HCC 2998; A498; RPMI-8226; SF-295; COLO 205; HL-60; SK-MEL-5.
Experiment in all cases: NCI anticancer screen, dose series, 48 h

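48-hour exposure; five concentrations; linearly interpolated endpoints. Here, GI50 denotes the concentration required for 50% inhibition of growth.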 Calls of active or inactive are those of the source. Cut-off read from the data, not from the text of the source: active = GI50 up to about 1.1 µM and inactive = higher.

Consider `O=c1[nH]ccc2c1ccn2C1CC(O)C(CO)O1` (stereo not drawn), for which the GI50 with HCT-15 was > 100 µM; in the experiment on M14 it was > 100 µM (inactive); in the experiment with Malme-3M it was > 100 µM (inactive); in the experiment on KM12, > 100 µM (inactive); with IGROV-1 it was > 100 µM (inactive); in the experiment on A549, > 100 µM (inactive). Further, the GI50 in the experiment with CAKI-1, with UO-31, in the experiment with HCC 2998, in the experiment on A498, in the experiment on RPMI-8226 and in the experiment on SF-295 was > 100 µM (inactive) throughout. In addition, the GI50 in the experiment with COLO 205, in the experiment with HL-60 and in the experiment on SK-MEL-5 was > 100 µM (inactive) each time.
For `CC(=O)Nc1ccc(-c2nnc(SCC(=O)Nc3ccc(Cl)cc3Cl)o2)cc1`, the GI50 in the experiment on HCT-15 is 38.5 µM; in the experiment on M14, 29.3 µM (inactive); in the experiment on Malme-3M it was 20.7 µM (inactive); in the experiment with KM12, 65.9 µM (inactive); with IGROV-1 it was 37.1 µM (inactive); in the experiment with A549, > 100 µM (inactive). Also, the GI50 is > 100 µM (inactive) in the experiment with CAKI-1; 94.8 µM (inactive) in the experiment on UO-31; > 100 µM (inactive) in the experiment with HCC 2998; 40.8 µM (inactive) with A498; 57.8 µM (inactive) in the experiment on SF-295; 28.6 µM (inactive) in the experiment with COLO 205. Moreover, the GI50 in the experiment with HL-60 was 27.8 µM (inactive); in the experiment with SK-MEL-5, 19.5 µM (inactive).
On to `COC(OC)c1cc2c(cc1C(=O)[C@@]13CCC[C@@H]1NC(=O)O3)OCO2`, for which the GI50 was > 100 µM (inactive) with M14; 22.6 µM (inactive) in the experiment on Malme-3M; > 100 µM (inactive) in the experiment with KM12; 73.5 µM (inactive) in the experiment on IGROV-1; > 100 µM (inactive) in the experiment on CAKI-1; 60.3 µM (inactive) in the experiment with UO-31. The GI50 is > 100 µM (inactive) in the experiment on A498, > 100 µM (inactive) in the experiment on SF-295, > 100 µM (inactive) in the experiment with HL-60 and 41.2 µM (inactive) in the experiment with SK-MEL-5.
For `c1ccc2[nH]c(CNc3ccc(C4C[Se]N=N4)cc3)nc2c1` (stereo not drawn), the GI50 was > 100 µM in the experiment on HCT-15; 67.3 µM (inactive) in the experiment with M14; 25.3 µM (inactive) in the experiment with Malme-3M; 26.4 µM (inactive) in the experiment on KM12; > 100 µM (inactive) with IGROV-1; > 100 µM (inactive) with A549. The GI50 with CAKI-1 is > 100 µM (inactive); in the experiment with UO-31, 38.9 µM (inactive); with HCC 2998, > 100 µM (inactive); in the experiment with A498 it was > 100 µM (inactive); in the experiment with RPMI-8226 it was 25.6 µM (inactive); in the experiment with SF-295, 28.4 µM (inactive). For the same compound, the GI50 was 48.6 µM (inactive) in the experiment with COLO 205, 28.2 µM (inactive) with HL-60 and 15.1 µM (inactive) in the experiment on SK-MEL-5.
`O=C(O)CC[C@H](NC(=O)c1ccc(-n2nc3ccc(=O)cc-3[nH]c2=O)cc1)C(=O)O`: the GI50 was > 100 µM in the experiment with HCT-15; > 100 µM (inactive) with M14; > 100 µM (inactive) with Malme-3M; > 100 µM (inactive) in the experiment with KM12; > 100 µM (inactive) in the experiment with IGROV-1; > 100 µM (inactive) in the experiment with A549. Moreover, the GI50 in the experiment with UO-31, with HCC 2998, in the experiment with A498, in the experiment with RPMI-8226, in the experiment on SF-295 and in the experiment on COLO 205 was > 100 µM (inactive) throughout. Further, the GI50 in the experiment with HL-60 and in the experiment with SK-MEL-5 was > 100 µM (inactive) each time.
As for `O=C1C=C(Nc2ccccc2C(=O)CC(=O)C(=O)Nc2cccc([N+](=O)[O-])c2)c2ccccc2C1=O`, the GI50 in the experiment on HCT-15 is 23.8 µM; in the experiment with M14 it was 41.5 µM (inactive); in the experiment on Malme-3M it was 20.4 µM (inactive); in the experiment on KM12 it was 36.7 µM (inactive); in the experiment on IGROV-1, 80.4 µM (inactive); in the experiment with A549 it was 83.9 µM (inactive). Also, the GI50 in the experiment on CAKI-1 is > 100 µM (inactive); in the experiment on UO-31 it was 34.9 µM (inactive); with HCC 2998, > 100 µM (inactive); with A498 it was > 100 µM (inactive); in the experiment on RPMI-8226, 5.58 µM (inactive); in the experiment with COLO 205, > 100 µM (inactive). The GI50 is 3.38 µM (inactive) with HL-60 and 12.9 µM (inactive) in the experiment on SK-MEL-5.
Regarding `O=C1NCCS(=O)(=O)N[C@@H](CC2=CC=CCC2)C(=O)N2CCCC12` (stereo partly drawn), the GI50 in the experiment on HCT-15 is > 100 µM; in the experiment on M14, > 100 µM (inactive); in the experiment with Malme-3M it was > 100 µM (inactive); in the experiment with KM12, > 100 µM (inactive); with IGROV-1, > 100 µM (inactive); in the experiment with A549, > 100 µM (inactive). The GI50 in the experiment on UO-31, with HCC 2998, with A498, in the experiment with RPMI-8226, in the experiment on SF-295 and with COLO 205 was > 100 µM (inactive) each time. Moreover, the GI50 with HL-60 and with SK-MEL-5 was > 100 µM (inactive) each time.
`COC(=O)N/N=C(\C)CC(=O)Nc1ccc(Cl)cc1`: the GI50 was > 100 µM (inactive) in the experiment on M14; > 100 µM (inactive) in the experiment with Malme-3M; > 100 µM (inactive) with KM12; > 100 µM (inactive) with IGROV-1; > 100 µM (inactive) in the experiment with A549; 67.3 µM (inactive) in the experiment on UO-31. Further, the GI50 in the experiment on HCC 2998, with A498, in the experiment on RPMI-8226, in the experiment on SF-295, in the experiment with COLO 205 and with HL-60 was > 100 µM (inactive) each time. Besides, the GI50 in the experiment on SK-MEL-5 was > 100 µM (inactive).
In the case of `Cc1nc(C(N)=S)sc1C(=O)/C=C/c1cccc(O)c1`, the GI50 is > 100 µM in the experiment with HCT-15; > 100 µM (inactive) in the experiment on Malme-3M; 32.4 µM (inactive) in the experiment with KM12; > 100 µM (inactive) in the experiment with IGROV-1; > 100 µM (inactive) in the experiment on A549; > 100 µM (inactive) in the experiment with CAKI-1. Further, the GI50 in the experiment with UO-31 is > 100 µM (inactive); with HCC 2998, > 100 µM (inactive); in the experiment with A498, > 100 µM (inactive); in the experiment on RPMI-8226, 25.9 µM (inactive); in the experiment on SF-295, > 100 µM (inactive); with COLO 205, > 100 µM (inactive). Further, the figures for the GI50 in the experiment on HL-60 and in the experiment on SK-MEL-5 were 36.1 µM (inactive) and > 100 µM (inactive), respectively.
Consider `CC1OC(n2cc(F)c(=O)[nH]c2=O)CCC1=O` (stereo not drawn), for which the GI50 is 95.3 µM in the experiment on HCT-15; > 100 µM (inactive) with M14; > 100 µM (inactive) in the experiment on Malme-3M; 92.9 µM (inactive) in the experiment on KM12; > 100 µM (inactive) in the experiment on IGROV-1; 46.7 µM (inactive) with A549. Also, the GI50 in the experiment on CAKI-1 is > 100 µM (inactive); in the experiment on UO-31, 71.8 µM (inactive); in the experiment with HCC 2998 it was 5.98 µM (inactive); in the experiment on A498, 30.4 µM (inactive); in the experiment on RPMI-8226, 49.7 µM (inactive); in the experiment on SF-295, > 100 µM (inactive). Besides, the GI50 in the experiment on COLO 205 was 79.4 µM (inactive); in the experiment with HL-60 it was 74.6 µM (inactive); in the experiment with SK-MEL-5 it was > 100 µM (inactive).
Take `COc1ccc(N2C(=O)C3c4[nH]c5ccccc5c4C4CCC(C(C)(C)C)CC4C3C2=O)cc1OC` (stereo not drawn): the GI50 was 35 µM in the experiment with HCT-15; 45.3 µM (inactive) in the experiment with M14; 38.4 µM (inactive) with Malme-3M; 33 µM (inactive) in the experiment on IGROV-1; 16.1 µM (inactive) in the experiment on A549; 34.4 µM (inactive) in the experiment with UO-31. For the same compound, the GI50 in the experiment on HCC 2998 is 48.8 µM (inactive); in the experiment on A498, 19.9 µM (inactive); with RPMI-8226, 22.2 µM (inactive); in the experiment on SF-295, 20.4 µM (inactive); in the experiment on COLO 205 it was 31.2 µM (inactive); in the experiment on HL-60, 59.4 µM (inactive). In addition, the GI50 in the experiment on SK-MEL-5 is 46.3 µM (inactive).
For the compound `CCOC(=O)c1cc(/C=C/C(C)=C/C(=O)OC)oc1-c1ccccc1`, the GI50 in the experiment with HCT-15 was 58.9 µM; with M14, > 100 µM (inactive); with Malme-3M it was > 100 µM (inactive); in the experiment on KM12, 48.4 µM (inactive); in the experiment on IGROV-1, 66.7 µM (inactive); in the experiment on A549 it was 49.8 µM (inactive). For the same compound, the GI50 in the experiment on CAKI-1 is 55.8 µM (inactive); with UO-31, 35.4 µM (inactive); with HCC 2998, > 100 µM (inactive); in the experiment with A498 it was > 100 µM (inactive); in the experiment on RPMI-8226, 31.6 µM (inactive); in the experiment on SF-295 it was 50.8 µM (inactive). For the same compound, the figures for the GI50 in the experiment with COLO 205, with HL-60 and in the experiment on SK-MEL-5 were > 100 µM (inactive), 46.2 µM (inactive) and > 100 µM (inactive), respectively.
Turning to `CCn1c2ccccc2c(=O)c2c(OC)ccc(OC)c21`, the GI50 in the experiment with HCT-15 was 45.9 µM; in the experiment on M14 it was 79.8 µM (inactive); with Malme-3M, 68.5 µM (inactive); with KM12, 79.6 µM (inactive); in the experiment on IGROV-1 it was 46.9 µM (inactive); in the experiment on A549, 55.6 µM (inactive). Moreover, the GI50 in the experiment on CAKI-1 is 22.9 µM (inactive); in the experiment with UO-31 it was 25.4 µM (inactive); in the experiment with A498, 25.4 µM (inactive); in the experiment on RPMI-8226, 35.5 µM (inactive); with SF-295, 53.8 µM (inactive); in the experiment on COLO 205, 55.7 µM (inactive). Further, the GI50 in the experiment on HL-60 is 29.6 µM (inactive).
As to `N#CC1=C(c2ccccc2)NN(Cc2ccccc2)C(c2ccc(Cl)cc2)CC1=O` (stereo not drawn), the GI50 with HCT-15 is 22.9 µM; with KM12, 25.8 µM (inactive); in the experiment on A549, 18.2 µM (inactive); in the experiment on CAKI-1 it was 30.1 µM (inactive); in the experiment on A498, 24.8 µM (inactive); in the experiment with RPMI-8226, 18.8 µM (inactive). The GI50 with SF-295 was 27.5 µM (inactive); in the experiment on COLO 205, 36.1 µM (inactive); in the experiment on HL-60 it was 28.2 µM (inactive); with SK-MEL-5 it was 15.6 µM (inactive).
In the case of `CC1(C)COC2(OC1)C1=NS(=O)(=O)CC13CCC2C3(C)C` (stereo not drawn), the GI50 in the experiment on HCT-15 was > 100 µM; in the experiment with M14, > 100 µM (inactive); with Malme-3M, > 100 µM (inactive); in the experiment with KM12 it was > 100 µM (inactive); with IGROV-1, > 100 µM (inactive); in the experiment on A549 it was > 100 µM (inactive). The GI50 in the experiment with CAKI-1, with UO-31, with A498, in the experiment on RPMI-8226, in the experiment on SF-295 and with COLO 205 was > 100 µM (inactive) throughout. The GI50 in the experiment with HL-60 and with SK-MEL-5 was > 100 µM (inactive) each time.
